# Source: patent publication US10736883B2, “Triazole furan compounds as agonists of the APJ receptor” (AMGEN INC., priority 2016, dated 2020)
# Biological target: APJ receptor (Homo sapiens (Human), UniProt P35414)
# Test: [35S]GTPγS binding assay on membranes from CHO cells stably expressing human APJ receptor
# Assay type: biochemical
# Conditions: membranes of CHO cells stably expressing human APJ receptor, means of several independent experiments, read-out: Activity hAPJ SPA EC50 IP
# Procedure, shortened: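 Membranes from CHO cells stably expressing human APJ were incubated with 0.2 nM [35S]GTPγS and ligands for 90 min at RT in 20 mM HEPES pH 7.5, 5 mM MgCl2, 200 mM NaCl, 3 μM GDP, 0.1% BSA with WGA PS beads. Nonspecific binding was set with 100 μM GTPγS. EC50 came from non-linear regression.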
# Sequence of APJ receptor (P35414 whole entry): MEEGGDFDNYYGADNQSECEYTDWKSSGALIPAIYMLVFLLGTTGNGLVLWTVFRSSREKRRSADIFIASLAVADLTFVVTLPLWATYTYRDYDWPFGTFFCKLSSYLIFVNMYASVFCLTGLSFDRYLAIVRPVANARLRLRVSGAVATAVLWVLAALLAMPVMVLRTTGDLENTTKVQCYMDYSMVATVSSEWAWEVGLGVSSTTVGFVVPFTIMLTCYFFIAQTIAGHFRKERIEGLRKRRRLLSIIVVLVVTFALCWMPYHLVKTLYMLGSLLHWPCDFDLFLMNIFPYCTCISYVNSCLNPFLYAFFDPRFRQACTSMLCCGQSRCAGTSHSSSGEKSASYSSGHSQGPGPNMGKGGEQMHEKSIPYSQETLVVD
row,Structure (SMILES),EC50 [nM]
1,"COc1cccc(OC)c1-n1c(NS(=O)(=O)[C@@H](C)[C@@H](OC)c2ncc(F)cn2)nnc1-c1ccc(C)o1 (single isomer, unassigned) [Example 132.0, (1S,2S)-N-(4-(2,6-dimethoxyphenyl)-5-(5-methylfuran-2-yl)-4H-1,2,4-triazol-3-yl)-1-(5-fluoropyrimidin-2-yl)-1-methoxypropane-2-sulfonamide or (1R,2R)-N-(4-(2,6-dimethoxyphenyl)-5-(5-methylfuran-2-yl)-4H-1,2,4-triazol-3-yl)-1-(5-fluoropyrimidin-2-yl)-1-methoxypropane-2-sulfonamide]",6.8
2,"COc1cccc(OC)c1-n1c(NS(=O)(=O)[C@@H]2C[C@H](O)CN(c3cnc(Cl)c(C#N)c3)C2)nnc1-c1ccc(C)o1 (mixture of isomers) [Example 322.0, (3S,5R)-1-(6-Chloro-5-cyano-3-pyridinyl)-N-(4-(2,6-dimethoxyphenyl)-5-(5-methyl-2-furanyl)-4H-1,2,4-triazol-3-yl)-5-hydroxy-3-piperidinesulfonamide and (3R,5S)-1-(6-chloro-5-cyano-3-pyridinyl)-N-(4-(2,6-dimethoxyphenyl)-5-(5-methyl-2-furanyl)-4H-1,2,4-triazol-3-yl)-5-hydroxy-3-piperidinesulfonamide]",0.2
3,"COc1cccc(OC)c1-n1c(NS(=O)(=O)[C@H](C)[C@H](O)c2cscn2)nnc1-c1ccc(C)o1 (single isomer, unassigned) [Example 298.0, (1R,2R)—N-(4-(2,6-Dimethoxyphenyl)-5-(5-methyl-2-furanyl)-4H-1,2,4-triazol-3-yl)-1-hydroxy-1-(1,3-thiazol-4-yl)-2-propanesulfonamide or (1S,2S)—N-(4-(2,6-dimethoxyphenyl)-5-(5-methyl-2-furanyl)-4H-1,2,4-triazol-3-yl)-1-hydroxy-1-(1,3-thiazol-4-yl)-2-propanesulfonamide]",11
4,"COc1cccc(OC)c1-n1c(NS(=O)(=O)[C@@H](C)Cc2cnc(C)cn2)nnc1-c1ccc(C)o1 (single isomer, unassigned) [Example 38.0, (2S)—N-(4-(2,6-dimethoxyphenyl)-5-(5-methyl-2-furanyl)-4H-1,2,4-triazol-3-yl)-1-(5-methyl-2-pyrazinyl)-2-propanesulfonamide or (2R)—N-(4-(2,6-dimethoxyphenyl)-5-(5-methyl-2-furanyl)-4H-1,2,4-triazol-3-yl)-1-(5-methyl-2-pyrazinyl)-2-propanesulfonamide]",3.8
5,"COCCn1c(NS(=O)(=O)[C@@H](C)[C@H](OC)c2ncc(Cl)cn2)nnc1-c1ccc(C)o1 [Example 386.0, (1R,2S)-1-(5-chloropyrimidin-2-yl)-1-methoxy-N-(4-(2-methoxyethyl)-5-(5-methylfuran-2-yl)-4H-1,2,4-triazol-3-yl)propane-2-sulfonamide]",37
6,"CCOC(=O)[C@@H]1C[C@@H](S(=O)(=O)Nc2nnc(-c3ccco3)n2-c2c(OC)cccc2OC)CN(c2ncc(F)cn2)C1 [Example 158.0, Ethyl (3R,5R)-5-((4-(2,6-dimethoxyphenyl)-5-(2-furanyl)-4H-1,2,4-triazol-3-yl)sulfamoyl)-1-(5-fluoro-2-pyrimidinyl)-3-piperidinecarboxylate or ethyl (3S,5S)-5-((4-(2,6-dimethoxyphenyl)-5-(2-furanyl)-4H-1,2,4-triazol-3-yl)sulfamoyl)-1-(5-fluoro-2-pyrimidinyl)-3-piperidinecarboxylate]",0.4
7,"COCC1(n2c(NS(=O)(=O)[C@@H](C)[C@H](OC)c3ncc(Cl)cn3)nnc2-c2ccc(C)o2)CC1 [Example 385.0, (1R,2S)-1-(5-chloro-2-pyrimidinyl)-1-methoxy-N-(4-(1-(methoxymethyl)cyclopropyl)-5-(5-methyl-2-furanyl)-4H-1,2,4-triazol-3-yl)-2-propanesulfonamide]",0.38
8,"COc1cccc(OC)c1-n1c(NS(=O)(=O)CCc2ccc(F)cc2C#N)nnc1-c1ccc(C)o1 [Example 119.0, 2-(2-Cyano-4-fluorophenyl)-N-(4-(2,6-dimethoxyphenyl)-5-(5-methylfuran-2-yl)-4H-1,2,4-triazol-3-yl)ethanesulfonamide]",0.15
9,"COc1cccc(OC)c1-n1c(NS(=O)(=O)[C@@H]2COCC[C@@H]2O)nnc1-c1ccc(C)o1 (single isomer, unassigned) [Example 405.0]",64
10,"COc1cccc(OC)c1-n1c(NS(=O)(=O)[C@@H](C)[C@H](C)c2cnc(C)cn2)nnc1-c1ccc(C)o1 [Example 148.0, (2S,3R)—N-(4-(2,6-Dimethoxyphenyl)-5-(5-methyl-2-furanyl)-4H-1,2,4-triazol-3-yl)-3-(5-methyl-2-pyrazinyl)-2-butanesulfonamide]",0.19
11,"COc1cccc(OC)c1-n1c(NS(=O)(=O)[C@H]2C[C@@H](O)CN(c3ncc(Cl)cn3)C2)nnc1-c1ccc(C)o1 (racemic) [Example 328.0, (3S,5R)-1-(5-Chloro-2-pyrimidinyl)-N-(4-(2,6-dimethoxyphenyl)-5-(5-methyl-2-furanyl)-4H-1,2,4-triazol-3-yl)-5-hydroxy-3-piperidinesulfonamide and (3R,5S)-1-(5-chloro-2-pyrimidinyl)-N-(4-(2,6-dimethoxyphenyl)-5-(5-methyl-2-furanyl)-4H-1,2,4-triazol-3-yl)-5-hydroxy-3-piperidinesulfonamide]",0.3
12,"COc1cccc(OC)c1-n1c(NS(=O)(=O)[C@H](C)[C@H](OC)c2cn3ccccc3n2)nnc1-c1ccc(C)o1 (single isomer, unassigned) [Example 268.0, (1S,2S)—N-(4-(2,6-Dimethoxyphenyl)-5-(5-methyl-2-furanyl)-4H-1,2,4-triazol-3-yl)-1-imidazo[1,2-a]pyridin-2-yl-1-methoxy-2-propanesulfonamide or (1R,2R)—N-(4-(2,6-dimethoxyphenyl)-5-(5-methyl-2-furanyl)-4H-1,2,4-triazol-3-yl)-1-imidazo[1,2-a]pyridin-2-yl-1-methoxy-2-propanesulfonamide]",0.47
13,"COc1cccc(OC)c1-n1c(NS(=O)(=O)C[C@H](O)c2ccc(Cl)cc2S(C)(=O)=O)nnc1-c1ccc(C)o1 (single isomer, unassigned) [Example 144.0, (2R)-2-(4-Chloro-2-(methylsulfonyl)phenyl)-N-(4-(2,6-dimethoxyphenyl)-5-(5-methyl-2-furanyl)-4H-1,2,4-triazol-3-yl)-2-hydroxyethanesulfonamide or (2S)-2-(4-chloro-2-(methylsulfonyl)phenyl)-N-(4-(2,6-dimethoxyphenyl)-5-(5-methyl-2-furanyl)-4H-1,2,4-triazol-3-yl)-2-hydroxyethanesulfonamide]",0.073
14,"COc1cccc(OC)c1-n1c(NS(=O)(=O)[C@@H]2COCC[C@@H]2O)nnc1-c1ccc(C)o1 (single isomer, unassigned) [Example 404.0]",36
15,"COc1ncnc(OC)c1-n1c(NS(=O)(=O)[C@@H](C)[C@@H](OC(C)C)c2ncc(C)cn2)nnc1-c1ccc(C)o1 [Example 401.0, (1S,2S)-N-(4-(4,6-dimethoxypyrimidin-5-yl)-5-(5-methylfuran-2-yl)-4H-1,2,4-triazol-3-yl)-1-isopropoxy-1-(5-methylpyrimidin-2-yl)propane-2-sulfonamide]",0.53
16,"COc1cccc(OC)c1-n1c(NS(=O)(=O)CCc2ncc(Cl)cc2-c2ccncc2)nnc1-c1ccco1 [Example 222.0, 2-(5-chloro-3,4′-bipyridin-2-yl)-N-(4-(2,6-dimethoxyphenyl)-5-(2-furanyl)-4H-1,2,4-triazol-3-yl)ethanesulfonamide]",0.31
